Test results as given in PubChem BioAssay AID2772 (The Scripps Research Institute Molecular Screening Center, 2010).
Calls of active or inactive are those of the source. How the calls were made is not given here.

The molecules below were run against Signal transducer and activator of transcription 1-alpha/beta (Homo sapiens) (UniProt P42224) (assay: inhibition of STAT1-driven luciferase signal – cell-based, luminescence, NIH 3T3, dose response, late-stage follow-up (AID 2772)). Conditions: NIH 3T3 fibroblasts, STAT1 luciferase reporter.
Chain of Signal transducer and activator of transcription 1-alpha/beta (Homo sapiens) (P42224 whole entry, looked up): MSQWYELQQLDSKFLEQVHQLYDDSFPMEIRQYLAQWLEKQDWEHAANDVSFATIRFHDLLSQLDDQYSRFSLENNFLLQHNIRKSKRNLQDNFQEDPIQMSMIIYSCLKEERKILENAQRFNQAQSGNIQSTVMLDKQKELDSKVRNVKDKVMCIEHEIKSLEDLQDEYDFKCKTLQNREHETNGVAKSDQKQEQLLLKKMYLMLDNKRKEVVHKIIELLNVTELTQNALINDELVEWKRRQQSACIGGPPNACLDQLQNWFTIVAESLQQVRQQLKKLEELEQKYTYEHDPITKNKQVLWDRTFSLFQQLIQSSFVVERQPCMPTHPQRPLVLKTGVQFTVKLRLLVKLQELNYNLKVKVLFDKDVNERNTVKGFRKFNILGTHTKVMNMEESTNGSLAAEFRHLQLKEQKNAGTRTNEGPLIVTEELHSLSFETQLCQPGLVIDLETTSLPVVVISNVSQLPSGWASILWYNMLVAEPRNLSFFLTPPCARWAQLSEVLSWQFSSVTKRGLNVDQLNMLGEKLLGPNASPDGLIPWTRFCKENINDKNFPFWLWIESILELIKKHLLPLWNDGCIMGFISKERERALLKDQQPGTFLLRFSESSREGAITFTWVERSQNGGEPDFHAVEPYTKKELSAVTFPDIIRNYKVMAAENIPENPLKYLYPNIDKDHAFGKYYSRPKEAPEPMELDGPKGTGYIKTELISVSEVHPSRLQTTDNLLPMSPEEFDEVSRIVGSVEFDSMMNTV

Row | SMILES | IC50
1 | COc1cccc(NC(=O)C(c2ccccc2)N2CCN(S(=O)(=O)c3ccc(C)cc3)CC2)c1 (centres undefined) | inactive
2 | CN(C)C(=O)c1nn(-c2ccc(F)cc2)c(=O)c2ccccc12 | > 55.7 µM (inactive)
3 | O=C(Nc1ccc(Cl)c(C(F)(F)F)c1)C(c1ccccc1)N1CCN(S(=O)(=O)c2ccccc2)CC1 (centres undefined) | > 55.7 µM (inactive)
4 | CC(C(=O)Nc1ccc(F)c(F)c1)N1CCN(S(=O)(=O)c2ccc(C(F)(F)F)cc2)CC1 (centres undefined) | > 55.7 µM (inactive)
5 | N#Cc1ccccc1S(=O)(=O)N1CCN(C(C(=O)Nc2ccc(F)cc2)c2ccccc2)CC1 (centres undefined) | > 55.7 µM (inactive)
6 | CCOc1ccc(-c2csc(Cn3c(CN4CCN(C)CC4)nc4ccccc4c3=O)n2)cc1 | > 18.6 µM (inactive)
7 | COc1cc2c(cc1OC)C(=O)N(Cc1cc(-c3ccccc3OC)no1)C(=CN1CCOCC1)N2 | > 55.7 µM (inactive)
8 | CC(=O)c1ccc(S(=O)(=O)N2CCN(C(C(=O)Nc3ccc(C)cc3)c3ccccc3)CC2)cc1 (centres undefined) | > 55.7 µM (inactive)
9 | Cc1ccc(NC(=O)C(c2ccccc2)N2CCN(S(=O)(=O)c3ccccc3)CC2)cc1 (centres undefined) | > 55.7 µM (inactive)
10 | CN(C)Cc1nc2ccccc2c(=O)n1Cc1nc(-c2cccc([N+](=O)[O-])c2)cs1 | > 18.6 µM (inactive)
11 | CN1CCN(Cc2nc3ccccc3c(=O)n2Cc2nc(-c3ccccc3F)cs2)CC1 | inactive
12 | CCOC(=O)c1ccc(S(=O)(=O)N2CCN(C(C(=O)Nc3ccc(OC)c(Cl)c3)c3ccccc3)CC2)cc1 (centres undefined) | > 55.7 µM (inactive)
13 | Cc1ccc(C)c(S(=O)(=O)N2CCN(C(C(=O)Nc3ccc(F)cc3)c3ccccc3)CC2)c1 (centres undefined) | > 55.7 µM (inactive)
14 | O=C(Nc1ccc(F)cc1)C(c1ccccc1)N1CCN(C(=O)c2ccccc2)CC1 (centres undefined) | > 55.7 µM (inactive)
15 | O=C(c1ccc(-n2c(=S)[nH]c3ccccc3c2=O)cc1)N1CCN(c2ccccc2)CC1 | > 55.7 µM (inactive)
16 | CCOc1ccc2oc(=O)cc(CSc3nc4ccccc4c(=O)[nH]3)c2c1 | > 55.7 µM (inactive)

Row | SMILES | IC50
17 | CCC(C(=O)Nc1ccccc1)N1CCN(S(=O)(=O)c2ccc3c(c2)CCC3)CC1 (centres undefined) | > 55.7 µM (inactive)
18 | COc1cccc(-c2csc(Cn3c(CN4CCOCC4)nc4ccccc4c3=O)n2)c1 | inactive
19 | CCOC(=O)Nc1ccc2c(CSc3nc4ccccc4c(=O)[nH]3)cc(=O)oc2c1 | > 55.7 µM (inactive)
20 | COC(=O)c1nn(-c2ccc(F)cc2)c(=O)c2ccccc12 | > 55.7 µM (inactive)
21 | O=C(c1ccc(-n2c(=S)[nH]c3ccccc3c2=O)cc1)N1CCN(C2CCCCC2)CC1 | > 55.7 µM (inactive)
22 | O=c1cc(CSc2nc3ccccc3c(=O)[nH]2)c2ccc(O)cc2o1 | inactive
23 | CC(C(=O)Nc1ccccc1)N1CCN(S(=O)(=O)c2ccccc2)CC1 (centres undefined) | > 55.7 µM (inactive)
24 | Cc1cc2oc(=O)cc(CSc3nc4ccccc4c(=O)[nH]3)c2cc1Cl | > 55.7 µM (inactive)
25 | CN1CCN(C=C2Nc3ccccc3C(=O)N2Cc2nc(C34CC5CC(CC(C5)C3)C4)cs2)CC1 | > 55.7 µM (inactive)
26 | CCOC(=O)N1CCN(C(=O)c2ccc(-n3c(=S)[nH]c4ccccc4c3=O)cc2)CC1 | inactive
27 | Cc1ccc(-n2nc(C(=O)O)c3ccccc3c2=O)cc1C | > 55.7 µM (inactive)
28 | N#Cc1ccc(S(=O)(=O)N2CCN(C(C(=O)Nc3ccc(F)cc3)c3ccccc3)CC2)cc1 (centres undefined) | > 55.7 µM (inactive)
29 | O=C(OCC1CCCCC1)c1nn(-c2ccccc2)c(=O)c2ccccc12 | > 55.7 µM (inactive)
30 | O=C(c1ccc(-n2c(=S)[nH]c3ccccc3c2=O)cc1)N1CCN(C(=O)c2ccco2)CC1 | > 55.7 µM (inactive)
31 | O=c1c2ccccc2nc(CN2CCOCC2)n1Cc1nc(-c2ccc[nH]2)cs1 | inactive

Second part, the molecule after the results:

Row | IC50 | SMILES
32 | > 55.7 µM (inactive) | CN(Cc1ccccc1N1CCCC1)C(=O)c1nn(-c2ccccc2)c(=O)c2ccccc12
33 | > 55.7 µM (inactive) | CNC(=O)c1nn(-c2ccc(F)cc2)c(=O)c2ccccc12
34 | > 55.7 µM (inactive) | Cc1ccc(C)c(NC(=O)C(c2ccccc2)N2CCN(S(=O)(=O)c3ccccc3C#N)CC2)c1 (centres undefined)
35 | > 55.7 µM (inactive) | COc1ccc(C)cc1NC(=O)C(c1ccccc1)N1CCN(S(=O)(=O)c2ccc(F)cc2)CC1 (centres undefined)
36 | > 55.7 µM (inactive) | O=C(O)c1nn(-c2ccc(F)cc2)c(=O)c2ccccc12
37 | > 55.7 µM (inactive) | O=C(Nc1ccc(F)cc1)C(c1ccccc1)N1CCN(S(=O)(=O)c2ccc3c(c2)OCCO3)CC1 (centres undefined)
38 | > 55.7 µM (inactive) | O=C(Nc1ccc(F)cc1)C(c1ccccc1)N1CCN(S(=O)(=O)c2ccccc2)CC1 (centres undefined)
39 | inactive | O=C1c2ccccc2N/C(=C\N2CCOCC2)N1Cc1nc(-c2ccccc2F)cs1
40 | > 55.7 µM (inactive) | Cc1ccc2oc(=O)cc(CSc3nc(-c4ccccc4)c4ccccc4n3)c2c1
41 | inactive | CN(C)Cc1nc2ccccc2c(=O)n1Cc1nc(C(C)(C)C)cs1
42 | > 55.7 µM (inactive) | COc1cc2c(cc1OC)C(=O)N(Cc1nnc(-c3ccc(Cl)cc3)o1)C(=CN1CCOCC1)N2
43 | inactive | CN1CCN(Cc2nc3ccccc3c(=O)n2Cc2nc(-c3cccc([N+](=O)[O-])c3)cs2)CC1
44 | > 18.6 µM (inactive) | CCC(C)c1ccc(-c2csc(CN3C(=O)c4ccccc4N/C3=C\N3CCN(C)CC3)n2)cc1 (centres undefined)
45 | > 55.7 µM (inactive) | C=C1NN(c2ccc(C(=O)N3CCC(Cc4ccccc4)CC3)cc2)C(=O)c2ccccc21
46 | > 55.7 µM (inactive) | NC(=O)c1ccc(S(=O)(=O)N2CCN(C(C(=O)Nc3ccc(F)cc3)c3ccccc3)CC2)cc1 (centres undefined)
47 | > 55.7 µM (inactive) | O=C(Nc1ccc(F)cc1)C(c1ccccc1)N1CCN(S(=O)(=O)c2ccc3ccccc3c2)CC1 (centres undefined)
48 | > 55.7 µM (inactive) | CN1CCN(C(=O)c2ccc(-n3c(=S)[nH]c4ccccc4c3=O)cc2)CC1
49 | > 55.7 µM (inactive) | O=C(c1ccc(-n2c(=S)[nH]c3ccccc3c2=O)cc1)N1CCN(c2ccc(F)cc2)CC1
50 | > 55.7 µM (inactive) | COc1ccc(N2CCN(C(=O)c3ccc(-n4c(=S)[nH]c5ccccc5c4=O)cc3)CC2)cc1
51 | inactive | Cc1ccc(-n2nc(C(=O)O)c3ccccc3c2=O)cc1Cl
52 | inactive | O=C1c2ccccc2N/C(=C\N2CCOCC2)N1Cc1nc(-c2ccc(F)c(F)c2)cs1
53 | > 55.7 µM (inactive) | COc1cc2c(cc1OC)C(=O)N(Cc1coc(-c3ccccc3)n1)C(=CN1CCOCC1)N2
54 | > 55.7 µM (inactive) | CCOc1ccccc1NC(=O)C(c1ccccc1)N1CCN(S(=O)(=O)c2ccc(F)c(F)c2F)CC1 (centres undefined)
